These results are taken from US20130045943A1, “A3AR AGONISTS FOR THE TREATMENT OF UVEITIS” (THE GOVERNMENT OF THE UNITED STATES OF AMERICA AS …, priority 2010, published 2013).

Data set [1] deals with antigen-specific (IRBP) responses of T cells. The experiment in a line: In vitro antigen-driven proliferation assay (3[H]-thymidine incorporation) of drain lymph node cells from treated mice. In kind it is cell-based, C57BL/6j mice. As to conditions: lymph node cells from treated animals, cultured 48 hours with IRBP 0.2-20 μg/ml. The method, then: To explore the immunological effects of IB-MECA on the antigen-specific responses of T cells, an in vitro antigen-driven proliferation assay was performed. Drain lymph nodes (inguinal and iliac) were collected from the IRBP immunized mice, both from the vehicle and from the IB-MECA treated groups. The cells were cultured for 48 hours in the presence of graded doses of IRBP (0.2-20 μg/ml) and proliferation was evaluated by an ^3[H]-thymidine incorporation assay.

The test system of data set [2] is experimental acute uveitis (EAU) induced with IRBP in C57BL/6j mice. Nature of the data set: Experimental autoimmune uveitis (EAU) in mice, disease intensity scored by funduscopy. Format: in vivo. As to conditions: for inhibition of fundoscopy score: oral IB-MECA 10 μg/kg twice daily from day 7.
Data set [3] shares this test system. Nature of the data set: EAU in mice, histopathological grading of enucleated eyes. In kind it is in vivo.
The next data set is described as follows: Water solubility. Format: physicochemical.

Molecules are shown by their SMILES. Entries after “also recorded” stand apart in the source; their conditions may differ.

Regarding `CNC(=O)[C@H]1OC(n2cnc3c(NCc4cccc(I)c4)ncnc32)[C@H](O)[C@@H]1O` (stereo partly drawn) [IB-MECA, 1-Deoxy-1-[6-[[(3-iodophenyl)methyl]amino]-9H-purine-9-yl]-N-methyl-D-ribofuranuronamide], in data set [1], the “T cell response to IRBP (proliferation)” value was “moderate response; also recorded: ameliorates”. Moreover, the “inhibition of fundoscopy score” value came to 91% in data set [2] (day 16 after immunization) and 49.4% in data set [2] (day 20 after immunization). Also, in data set [2] (result in words), the “development of EAU (FIG. 1)” value was “inhibited”. The “histopathological score of EAU (FIG. 2)” value in data set [3] (result in words) is reported as “decreased”. Also, the “inhibition of pathological score in comparison to the vehicle-treated group” value in data set [3] (upon study termination, oral IB-MECA 10 μg/kg twice daily from day 7) was 53%. Moreover, in “Water solubility”, the water solubility entry is “not water soluble”.
